One data set deals with human A2a receptor (Homo sapiens, UniProt P29274). Nature of the data set: Adenosine antagonistic activity, radioligand binding with [3H]CGS 21680. The settings on record: [3H]CGS 21680, 20 nM. How it is done:
(§1) Test 1: Adenosine Antagonistic Activity
(§2) The adenosine antagonistic activity [Ki(nM)] of the test compound was examined by radioligand binding techniques using 8-cyclopentyl-1,3-dipropylxanthine, [dipropyl-2,3^−3H(N)] ([3H]DPCPX, 4.5 nM) for human A1 receptor and [3H]CGS 21680 (20 nM) for human A2a receptor.

Another data set has as its target T1, human A1 receptor (Homo sapiens, UniProt P30542).
T1 sequence (P30542 1-326): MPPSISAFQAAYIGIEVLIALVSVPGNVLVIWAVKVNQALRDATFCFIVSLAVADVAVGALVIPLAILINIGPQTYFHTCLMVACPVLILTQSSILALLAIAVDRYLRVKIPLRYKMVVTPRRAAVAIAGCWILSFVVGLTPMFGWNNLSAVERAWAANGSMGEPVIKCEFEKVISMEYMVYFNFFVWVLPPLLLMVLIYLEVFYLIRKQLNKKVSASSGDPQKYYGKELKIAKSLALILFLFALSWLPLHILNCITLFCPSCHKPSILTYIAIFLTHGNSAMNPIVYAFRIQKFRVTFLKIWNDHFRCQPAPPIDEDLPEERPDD
Nature of the data set: Adenosine antagonistic activity, radioligand binding with [3H]DPCPX. The note with it: 4.5 nM. On the procedure: as §1, §2

In a further data set the test system is ddY mice. Nature of the data set: Anticatalepsy activity in mouse (haloperidol-induced catalepsy). The format is in vivo. The settings on record: 3.2 mg/kg orally, ddY mice (n=7); haloperidol 0.32 mg/kg i.p. 30 min after compound; measured 30 min after injection, bar test up to 30 sec. How it is done:
Test 2: Anticatalepsy Activity in Mouse
The test compound (3.2 mg/kg) was administered orally with ddY mice(n=7). Then, haloperidol (0.32 mg/kg) was injected intraperitoneally 30 min. after the administration of the compound. Thirty minutes after the injection, the cataleptic responses of mice were measured. The forelimbs of each mouse were placed on a 3 cm high, 3 mm wide horizontal bar, and the duration of cataleptic posture was measured for up to 30 sec.

Sequence of human A2a receptor (P29274 whole entry): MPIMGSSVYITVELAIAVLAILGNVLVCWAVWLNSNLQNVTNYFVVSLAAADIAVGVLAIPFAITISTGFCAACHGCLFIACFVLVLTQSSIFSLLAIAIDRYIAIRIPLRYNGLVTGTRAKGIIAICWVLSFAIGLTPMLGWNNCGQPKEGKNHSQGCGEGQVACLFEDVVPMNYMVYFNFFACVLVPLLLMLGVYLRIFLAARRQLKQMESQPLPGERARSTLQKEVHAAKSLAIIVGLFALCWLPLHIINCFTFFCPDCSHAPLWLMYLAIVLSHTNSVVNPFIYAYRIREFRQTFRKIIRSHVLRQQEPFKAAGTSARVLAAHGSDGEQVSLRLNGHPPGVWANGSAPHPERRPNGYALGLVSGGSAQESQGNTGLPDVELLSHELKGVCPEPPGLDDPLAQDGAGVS

In general, melting point refers to the temperature of the solid-liquid transition. As a reminder, the Ki is the equilibrium dissociation constant of an inhibitor or competing ligand from its target. Higher therefore signals weaker binding. As to `CCCCCC(=O)Nc1nc(-c2ccccc2)c(-c2ccc(=O)n(C(C)C)n2)s1` [Example 3, N-[5-(1-Isopropyl-6-oxo-1,6-dihydro-3-pyridazinyl)-4-phenyl-1,3-thiazol-2-yl]hexanamide], the melting point was in the range of 129 to 132 °C. This compound also registered an inhibitory constant (Ki) at human A2a receptor of 1.46 nM. The compound further registered a Ki on human A1 receptor of 0.27 nM. The “Manifestation rate of catalepsy (number of mouse)” value (“Manifestation rate of catalepsy” below) in the data set with ddY mice was 0/7.

`COc1ccc(CC(=O)Nc2nc(-c3ccccc3)c(-c3ccc(=O)n(C(C)C)n3)s2)cc1` [Example 9, N-[5-(1-Isopropyl-6-oxo-1,6-dihydro-3-pyridazinyl)-4-phenyl-1,3-thiazol-2-yl]-2-(4-methoxyphenyl)acetamide] returned a melting point of 188 to 190 °C. In addition, at human A2a receptor, the inhibitory constant (Ki) was 1.22 nM. The same compound gave an inhibitory constant (Ki) on human A1 receptor of 0.28 nM. In addition, the “Manifestation rate of catalepsy” value in the data set on ddY mice is recorded as 0/7.

Turning to `Cc1cccc(NC(=O)Nc2nc(-c3ccccc3)c(-c3ccc(=O)n(C(C)C)n3)s2)c1` [Example 10, N-[5-(1-Isopropyl-6-oxo-1,6-dihydro-3-pyridazinyl)-4-phenyl-1,3-thiazol-2-yl]-N′-(3-methylphenyl)urea], the melting point was in the range of 242 to 243 °C. Also, the Ki at human A2a receptor is 3.08 nM. Also, affinity at human A1 receptor was put at a Ki of 0.38 nM.

As to `CNc1nc(-c2ccccc2)c(-c2ccc(=O)n(C(C)C)n2)s1` [Example 15, 2-Isopropyl-6-[2-(methylamino)-4-phenyl-1,3-thiazol-5-yl]-3(2H)-pyridazinone], the melting point was 234 to 236 °C. The compound further had a Ki on human A2a receptor of 1.63 nM. Besides, the Ki on human A1 receptor amounted to 0.12 nM. In addition, in the data set on ddY mice, the “Manifestation rate of catalepsy” value is 0/7.

Compound `CC(C)n1nc(-c2sc(NC(=O)c3ccccc3)nc2-c2ccc(F)cc2)ccc1=O` [Example 78, N-[4-(4-Fluorophenyl)-5-(1-isopropyl-6-oxo-1,6-dihydro-3-pyridazinyl)-1,3-thiazol-2-yl]-benzamide] registered a melting point of 228 to 230 °C. The compound further came in with a Ki on human A2a receptor of 1.23 nM. The Ki at human A1 receptor is 0.45 nM. Further, the “Manifestation rate of catalepsy” value with ddY mice was 0/7.

For `CC(C)n1nc(-c2sc(NC(=O)CNCc3ccncc3)nc2-c2ccccc2)ccc1=O` [Example 100, N-[5-(1-isopropyl-6-oxo-1,6-dihydro-3-pyridazinyl)-4-phenyl-1,3-thiazol-2-yl]-2-[(4-pyridinylmethyl)amino]acetamide], the melting point was in the range of 187 to 188 °C. This compound also showed a Ki at human A2a receptor of 1.22 nM. Also, the Ki at human A1 receptor worked out at 0.61 nM. The “Manifestation rate of catalepsy” value in the data set with ddY mice is 0/7.

`CCNC(=O)c1nc(-c2ccccc2)c(-c2ccc(=O)n(C(C)C)n2)s1` [Example 214, N-ethyl-5-(1-isopropyl-6-oxo-1,6-dihydro-3-pyridazinyl)-4-phenyl-1,3-thiazole-2-carboxamide]: the melting point lay in the range of 172 to 174 °C. On human A2a receptor, this compound displayed an inhibition constant Ki of 1.52 nM. The affinity at human A1 receptor, expressed as Ki, was 1.14 nM. The “Manifestation rate of catalepsy” value in the data set with ddY mice is listed as 0/7.

As to `CC(C)n1nc(-c2sc(C(=O)NCc3ccncc3)nc2-c2ccccc2)ccc1=O` [Example 233, 5-(1-Isopropyl-6-oxo-1,6-dihydro-3-pyridazinyl)-4-phenyl-N-(4-pyridinylmethyl)-1,3-thiazole-2-carboxamide], the melting point fell in the range of 192 to 193 °C. This compound also displayed a Ki on human A2a receptor of 1.14 nM. Also, the affinity at human A1 receptor, expressed as Ki, was 1.03 nM. For the same compound, the “Manifestation rate of catalepsy” value in the data set on ddY mice is listed as 0/7.

The values above are taken from patent publication US20050004134A1, “Thiazole derivative and pharmaceutical use thereof” (priority 2001, published 2005).
